Measured values published in US20240368177A1, “5-AMINO-6,8-DIHYDRO-1H-FURO[3,4-d]PYRROLO[3,2-b]PYRIDINE-2-CARBOXAMIDE DERIVATIVES AS MTA-COOPERATIVE INHIBITORS OF PRMT5” (BeiGene Switzerland GmbH, priority 2023, published 2024).

What was measured:
[1] = tested on: HCT116-MTAP-KO; assay: Cell killing in HCT116 isogenic pair (Cell Titer-Glo viability), MTAP knock-out cells; assay type: cell-based, human; settings: Homo sapiens, HCT-116, 144 h, 6 days incubation, 0-10 μM, * = more than 50% viability inhibition at tested concentration without a full curve
Description: (§1) HCT116 cell line (ATCC, CCL-247) was isolated from the colon of an adult with colon cancer. It has a mutation in codon 13 of the ras proto-oncogene and can be used as a positive control for PCR assays of mutation in this codon. HCT116-MTAP-KO was knocked-out-MTAP-gene based HCT116, and a single clone was passed for this assay. HCT116-mock-RNA-KO was knocked-out-mock-gene based HCT116 with MTAP wildtype genotype. The base medium for HCT116 isogenic pair is RPMI 1640, HEPES (Gibco, 22400105). To make the complete growth medium, added the following components to the base medium: fetal bovine serum to a final concentration of 10% (Gibco, 10099-141C). The cell line was grown in a humidified 5% CO2 atmosphere at 37° C. and regularly tested for the presence of mycoplasma with MpcoAlert™ PLUS Mycoplasma Detection Kit (Lonzak LT07-710).
(§2) • Seeded HCT116-mock-RNA-KO (4E2/well) or HCT116-MTAP-KO (4E2/well) cells into a 96-well plate (Greiner: 655090), 100 μL/well. • Incubated at 37° C., 5% CO2, overnight. • Added 50 μL fresh growth medium containing serial dilution of test compounds for a final test compound concentration of 0-10 μM to each well. • Incubated at 37° C., 5% CO2, 6 days. • The cell viability was detected by Cell Titer-Glo (Promega, G7573). Added 70 μL of CeliTiter-Glo® reagent in each well. • Incubated at room temperature for 10 minutes to stabilize luminescent signal. • Analyzed with Microplate Reader (TECAN, SPARK) and fit IC50 using Prism® 9.

[2] = tested on: HCT116-mock-RNA-KO; assay: Cell killing in HCT116 isogenic pair (Cell Titer-Glo viability), mock knock-out cells with MTAP wildtype genotype; assay type: cell-based, human; settings: Homo sapiens, HCT-116, 144 h, 6 days incubation, 0-10 μM
Description: as §1, §2

Row | SMILES | IC50 [1] [nM] | IC50 [2] [nM]
1 | CO[C@@H]1CCOC[C@H]1N(Cc1ccc(-c2c(F)cccc2F)cn1)C(=O)c1cc2nc(N)c3c(c2[nH]1)CO[C@@H]3C [Example 23, (R)-5-amino-N-((5-(2,6-difluorophenyl)pyridin-2-yl)methyl)-N-((3R,4R)-4-methoxytetrahydro-2H-pyran-3-yl)-6-methyl-6,8-dihydro-1H-furo[3,4-d]pyrrolo[3,2-b]pyridine-2-carboxamide] | 4.8 | 81
2 | CO[C@@H]1CCOC[C@H]1N(Cc1ccc(-c2c(F)cccc2F)cn1)C(=O)c1cc2nc(N)c3c(c2[nH]1)CO[C@H]3C [Example 24, (S)-5-amino-N-((5-(2,6-difluorophenyl)pyridin-2-yl)methyl)-N-((3R,4R)-4-methoxytetrahydro-2H-pyran-3-yl)-6-methyl-6,8-dihydro-1H-furo[3,4-d]pyrrolo[3,2-b]pyridine-2-carboxamide] | 103 | 8540
3 | Cn1ncnc1-c1ccc(CN(C(=O)c2cc3nc(N)c4c(c3[nH]2)COC4)[C@@H]2CCCc3cccnc32)nc1 [Example 25, (R)-5-amino-N-((5-(1-methyl-1H-1,2,4-triazol-5-yl)pyridin-2-yl)methyl)-N-(5,6,7,8-tetrahydroquinolin-8-yl)-6,8-dihydro-1H-furo[3,4-d]pyrrolo[3,2-b]pyridine-2-carboxamide] | 96 | 2000
4 | CO[C@@H]1CCOC[C@H]1N(Cc1ccc(C(F)(F)F)cn1)C(=O)c1cc2nc(N)c3c(c2[nH]1)COC3 [Example 26, 5-amino-N-((3R,4R)-4-methoxytetrahydro-2H-pyran-3-yl)-N-((5-(trifluoromethyl)pyridin-2-yl)methyl)-6,8-dihydro-1H-furo[3,4-d]pyrrolo[3,2-b]pyridine-2-carboxamide] | 14 | 1870
5 | CO[C@@H]1CCOC[C@H]1N(Cc1ccc(-c2ccccc2)cn1)C(=O)c1cc2nc(N)c3c(c2[nH]1)COC3 [Example 27, 5-amino-N-((3R,4R)-4-methoxytetrahydro-2H-pyran-3-yl)-N-((5-phenylpyridin-2-yl)methyl)-6,8-dihydro-1H-furo[3,4-d]pyrrolo[3,2-b]pyridine-2-carboxamide] | 2.4 | 284
6 | CO[C@@H]1CCOC[C@H]1N(Cc1ccc(-c2ccncc2)cn1)C(=O)c1cc2nc(N)c3c(c2[nH]1)COC3 [Example 28, N-([3,4′-bipyridin]-6-ylmethyl)-5-amino-N-((3R,4R)-4-methoxytetrahydro-2H-pyran-3-yl)-6,8-dihydro-1H-furo[3,4-d]pyrrolo[3,2-b]pyridine-2-carboxamide] | 11 | 1900
7 | Nc1nc2cc(C(=O)N(Cc3ccc(-c4ccncc4)cn3)Cc3c(F)cccc3F)[nH]c2c2c1COC2 [Example 29, N-([3,4′-bipyridin]-6-ylmethyl)-5-amino-N-(2,6-difluorobenzyl)-6,8-dihydro-1H-furo[3,4-d]pyrrolo[3,2-b]pyridine-2-carboxamide] | 1.3 | 81
8 | Nc1nc2cc(C(=O)N(Cc3ccc(-c4c(F)cncc4F)cn3)Cc3c(F)cccc3F)[nH]c2c2c1COC2 [Example 30, 5-amino-N-((3′,5′-difluoro-[3,4′-bipyridin]-6-yl)methyl)-N-(2,6-difluorobenzyl)-6,8-dihydro-1H-furo[3,4-d]pyrrolo[3,2-b]pyridine-2-carboxamide] | 0.8 | 22
9 | Nc1nc2cc(C(=O)N(Cc3ccc(-c4c(F)cncc4F)cn3)Cc3c(Cl)cccc3Cl)[nH]c2c2c1COC2 [Example 31, 5-amino-N-(2,6-dichlorobenzyl)-N-((3′,5′-difluoro-[3,4′-bipyridin]-6-yl)methyl)-6,8-dihydro-1H-furo[3,4-d]pyrrolo[3,2-b]pyridine-2-carboxamide] | 1.2 | 7.1
10 | N#Cc1ccc(CN(Cc2c(F)cccc2F)C(=O)c2cc3nc(N)c4c(c3[nH]2)COC4)nc1 [Example 32, 5-amino-N-((5-cyanopyridin-2-yl)methyl)-N-(2,6-difluorobenzyl)-6,8-dihydro-1H-furo[3,4-d]pyrrolo[3,2-b]pyridine-2-carboxamide] | 3.9 | 451
11 | Nc1nc2cc(C(=O)N(Cc3c(F)cccc3F)CC3CC3)[nH]c2c2c1COC2 [Example 33, 5-amino-N-(cyclopropylmethyl)-N-(2,6-difluorobenzyl)-6,8-dihydro-1H-furo[3,4-d]pyrrolo[3,2-b]pyridine-2-carboxamide] | 210 | > 10000
12 | CO[C@@H]1CCOC[C@H]1N(Cc1ncc(C(F)(F)F)cc1F)C(=O)c1cc2nc(N)c3c(c2[nH]1)COC3 [Example 34, 5-amino-N-((3-fluoro-5-(trifluoromethyl)pyridin-2-yl)methyl)-N-((3R,4R)-4-methoxytetrahydro-2H-pyran-3-yl)-6,8-dihydro-1H-furo[3,4-d]pyrrolo[3,2-b]pyridine-2-carboxamide] | 7.4 | 1350
13 | C[C@H](c1ncccn1)N(Cc1ncc(C(F)(F)F)cc1F)C(=O)c1cc2nc(N)c3c(c2[nH]1)COC3 [Example 35, (R)-5-amino-N-((3-fluoro-5-(trifluoromethyl)pyridin-2-yl)methyl)-N-(1-(pyrimidin-2-yl)ethyl)-6,8-dihydro-1H-furo[3,4-d]pyrrolo[3,2-b]pyridine-2-carboxamide] | 11 | 1530
14 | CO[C@@H]1CCOC[C@H]1N(Cc1ccc(C2CC2)cn1)C(=O)c1cc2nc(N)c3c(c2[nH]1)COC3 [Example 36, 5-amino-N-((5-cyclopropylpyridin-2-yl)methyl)-N-((3R,4R)-4-methoxytetrahydro-2H-pyran-3-yl)-6,8-dihydro-1H-furo[3,4-d]pyrrolo[3,2-b]pyridine-2-carboxamide] | 5.8 | 445
15 | Nc1nc2cc(C(=O)N(Cc3ccc(C(F)(F)F)nn3)Cc3c(F)cccc3F)[nH]c2c2c1COC2 [Example 37, 5-amino-N-(2,6-difluorobenzyl)-N-((6-(trifluoromethyl)pyridazin-3-yl)methyl)-6,8-dihydro-1H-furo[3,4-d]pyrrolo[3,2-b]pyridine-2-carboxamide] | 13 | 1680
16 | C[C@H]1OCc2c1c(N)nc1cc(C(=O)N(Cc3ccc(C(F)(F)F)cn3)Cc3ncccc3F)[nH]c21 [Example 38, (R)-5-amino-N-((3-fluoropyridin-2-yl)methyl)-6-methyl-N-((5-(trifluoromethyl)pyridin-2-yl)methyl)-6,8-dihydro-1H-furo[3,4-d]pyrrolo[3,2-b]pyridine-2-carboxamide] | 6.3 | 665
17 | CN(C(=O)c1cc2nc(N)c3c(c2[nH]1)COC3)[C@H]1COCc2cc(C(F)(F)F)ccc21 [Example 39, (R)-5-amino-N-methyl-N-(7-(trifluoromethyl)isochroman-4-yl)-6,8-dihydro-1H-furo[3,4-d]pyrrolo[3,2-b]pyridine-2-carboxamide] | 1170 | > 10000
18 | CN(C(=O)c1cc2nc(N)c3c(c2[nH]1)COC3)[C@@H]1COCc2cc(C(F)(F)F)ccc21 [Example 40, (S)-5-amino-N-methyl-N-(7-(trifluoromethyl)isochroman-4-yl)-6,8-dihydro-1H-furo[3,4-d]pyrrolo[3,2-b]pyridine-2-carboxamide] | 13 | 2490
19 | C[C@H](c1ncccn1)N(Cc1ncc(Br)cc1F)C(=O)c1cc2nc(N)c3c(c2[nH]1)COC3 [Example 41, (R)-5-amino-N-((5-bromo-3-fluoropyridin-2-yl)methyl)-N-(1-(pyrimidin-2-yl)ethyl)-6,8-dihydro-1H-furo[3,4-d]pyrrolo[3,2-b]pyridine-2-carboxamide] | 6.6 | 586
20 | Nc1nc2cc(C(=O)N(Cc3ncccn3)Cc3ncc(C(F)(F)F)cc3F)[nH]c2c2c1COC2 [Example 42, 5-amino-N-((3-fluoro-5-(trifluoromethyl)pyridin-2-yl)methyl)-N-(pyrimidin-2-ylmethyl)-6,8-dihydro-1H-furo[3,4-d]pyrrolo[3,2-b]pyridine-2-carboxamide] | 24 | 2500
21 | N#Cc1cc(F)c(CN(Cc2ncccc2F)C(=O)c2cc3nc(N)c4c(c3[nH]2)COC4)c(F)c1 [Example 43, 5-amino-N-(4-cyano-2,6-difluorobenzyl)-N-((3-fluoropyridin-2-yl)methyl)-6,8-dihydro-1H-furo[3,4-d]pyrrolo[3,2-b]pyridine-2-carboxamide] | 2.9 | 207
22 | COC[C@@H](C)N(Cc1ncc(C(F)(F)F)cc1F)C(=O)c1cc2nc(N)c3c(c2[nH]1)COC3 [Example 44, (R)-5-amino-N-((3-fluoro-5-(trifluoromethyl)pyridin-2-yl)methyl)-N-(1-methoxypropan-2-yl)-6,8-dihydro-1H-furo[3,4-d]pyrrolo[3,2-b]pyridine-2-carboxamide] | 8.2 | 568
